The target in test [1] is T1, EphrinB2-EphB2 (Homo sapiens, UniProt P29323).
T1 construct: soluble human EphB1-His, EphB2-His, and EphB4-His ectodomains; commercially available human EphrinB1-Fc (EB1), EphrinB2-Fc (EB2), and EphrinB3-Fc (EB3) ectodomain proteins; purchased
T1 sequence (P29323 19-543 limits assumed): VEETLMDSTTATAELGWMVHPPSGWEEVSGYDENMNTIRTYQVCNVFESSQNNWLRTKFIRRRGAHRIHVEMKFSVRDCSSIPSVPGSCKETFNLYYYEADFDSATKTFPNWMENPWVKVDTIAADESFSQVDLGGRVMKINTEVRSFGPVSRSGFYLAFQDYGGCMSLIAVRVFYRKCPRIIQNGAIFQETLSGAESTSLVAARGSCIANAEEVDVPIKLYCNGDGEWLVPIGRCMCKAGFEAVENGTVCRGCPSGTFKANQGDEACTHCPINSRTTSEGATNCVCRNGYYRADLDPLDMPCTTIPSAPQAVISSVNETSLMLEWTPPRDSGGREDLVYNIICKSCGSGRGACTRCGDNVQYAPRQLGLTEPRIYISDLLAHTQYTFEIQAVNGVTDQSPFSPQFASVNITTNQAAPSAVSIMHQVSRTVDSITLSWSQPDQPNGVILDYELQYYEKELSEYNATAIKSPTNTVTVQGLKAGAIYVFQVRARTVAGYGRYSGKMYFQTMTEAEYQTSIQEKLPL
The test can be described thus: Octet 80 sec association/500 sec dissociation, immobilized human EphrinB2-Fc binding to soluble human EphB2-His. The note with it: for EphB2 Inhibition Percent, Inhibition of Association ONLY: at 3.2 μM and 80 seconds; for EphB2 Inhibition Percent, Inhibition of Association ONLY / EphB2 Inhibition Percent, Inhibition of Association-Dissociation: immobilized human EphrinB2, 25 nM soluble human EphB2; for EphB2 Inhibition Percent, Inhibition of Association-Dissociation: at 3.2 μM and 580 seconds. A digest of the protocol:
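EphrinB2-Fc captured on AHC biosensors, then soluble His-tagged EphB ectodomain (25 nM for % inhibition runs) associated 80 s and dissociated 500 s in PBS, 0.05% Tween-20, 1% DMSO ± compound. Compounds tested at 0.1–3.2 μM with a 10 μM max standard; IC50 from AUC of full traces or at 75 s and 135 s.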
(In general: Biolayer interferometry detects binding as a change in optical thickness at a sensor tip.)

The target in test [2] is T1, EphrinB2-EphB2. The test can be described thus: Octet tetramerization inhibition, immobilized human EphrinB2 binding to 50 nM soluble human EphB2.
The mark [3] stands for this setting: EphB2, 25 nM EphB2, 3.2 μM compound, A20-I as max control, 0* = less than 0, no inhibition.
Setting [4] is: EphB2, 25 nM EphB2, 3.2 μM compound, A20-I as max control, 0* = less than 0, no inhibition, read-out: % Inhibition: Association + Dissociation (160 sec).
Setting [5] is: EphB2, 25 nM EphB2, 3.2 μM compound, A20-I as max control, 0* = less than 0, no inhibition, read-out: % Inhibition: Association ONLY (80 sec).
The mark [6] stands for this setting: Absolute AUC/IC50, Table A, EphrinB2-EphB2.
[7] abbreviates: Absolute Association IC50 (300 sec), Table A, EphrinB2-EphB2.
Setting [8] is: Absolute Dissociation IC50 (450 sec), Table A, EphrinB2-EphB2.
The mark [9] stands for this setting: Relative AUC/IC50, Table A, EphrinB2-EphB2, compound 7: association only.
[10] abbreviates: Relative Association IC50 (300 sec), Table A, EphrinB2-EphB2.
[11] abbreviates: Relative Dissociation IC50 (450 sec), Table A, EphrinB2-EphB2.

Values joined by “and” are separate entries in the source; they are usually repeats but may differ in a detail not shown here. Identical values can stand only once. Like-named read-outs stand apart in the source and are kept apart here. Marks after values point to notes of the source that are not given here. Bounds are passed on as bounds.

Consider `Oc1c(I)cc(CN2CCOCC2)c2cccnc12` [Compound 7, 7-iodo-5-(morpholinomethyl)quinolin-8-ol], for which the “% Inhibition: Association + Dissociation (160 sec)” value on EphrinB2-EphB2 [1] (setting [3]) was 80.6% and 77.6% and 74.3%. In addition, the “% Inhibition: Association ONLY (80 sec)” value on EphrinB2-EphB2 [1] (setting [3]) was 66.1% and 61.2% and 56.7%. Further, the results for the inhibition at 3.2 µM at EphrinB2-EphB2 [1] (setting [4]) and at EphrinB2-EphB2 [1] (setting [5]) were 75.3% and 59.6%, respectively. Also, the inhibition on EphrinB2-EphB2 [1] (EphB2, 10 μM 2×HCl salt, read-out: % Inhibited (AUC), Association) came to 61.8%; at EphrinB2-EphB2 [1] (EphB2, first 160 sec, 10 μM 2×HCl salt, read-out: % Inhibited (AUC), Association + Dissociation) it was 76.5%; at EphrinB2-EphB2 [1] (EphB2, highest dose, typically 3.2 μM, read-out: Association (% Inhibited (AUC))) it was 56.4%; on EphrinB2-EphB2 [1] (EphB2, highest dose, typically 3.2 μM, read-out: Association + Dissociation (% Inhibited (AUC))) it was 74.7%. The IC50 stood at 1660 nM at EphrinB2-EphB2 [1] (EphB2, Association (75″), read-out: Absolute IC50); 1200 nM at EphrinB2-EphB2 [1] (EphB2, Association (75″), read-out: Relative IC50); 2240 nM on EphrinB2-EphB2 [1] (EphB2, Association (AUC), read-out: Absolute IC50); 1150 nM at EphrinB2-EphB2 [1] (EphB2, Association (AUC), read-out: Relative IC50); 410 nM on EphrinB2-EphB2 [1] (EphB2, Dissociation (135″), read-out: Absolute IC50); 340 nM at EphrinB2-EphB2 [1] (EphB2, Dissociation (135″), read-out: Relative IC50). Besides, the concentration for half-maximal inhibition (IC50) was 240 nM at EphrinB2-EphB2 [1] (EphB2, Full AUC, read-out: Absolute IC50); 190 nM on EphrinB2-EphB2 [1] (EphB2, Full AUC, read-out: Relative IC50); over 1600 nM on EphrinB2-EphB2 [2] (setting [6]); 1500 nM on EphrinB2-EphB2 [2] (setting [7]); over 1600 nM on EphrinB2-EphB2 [2] (setting [8]); 440 nM on EphrinB2-EphB2 [2] (setting [9]). In addition, the half-inhibitory concentration (IC50) at EphrinB2-EphB2 [2] (setting [10]) is 890 nM; on EphrinB2-EphB2 [2] (setting [11]), 1070 nM; at EphrinB2-EphB2 [2] (tetramerization inhibitor IC50 (relative), association step, surmountable tetramer), about 600 nM. The “tetramerization inhibitor activity” value at EphrinB2-EphB2 [2] is “stronger tetramerization inhibitor compared to A20”.
Turning to `Oc1ccc(CN2CCN(Cc3ccccc3)CC2)c2cccnc12` [Compound 41, 5-((4-benzylpiperazin-1-yl)methyl)quinolin-8-ol], the inhibition at 3.2 µM on EphrinB2-EphB2 [1] (setting [4]) stood at 25.3%; at EphrinB2-EphB2 [1] (setting [5]), 9.1%. The IC50 was 2090 nM and > 3200 nM at EphrinB2-EphB2 [2] (setting [6]); 2820 nM and 3020 nM at EphrinB2-EphB2 [2] (setting [7]); 3020 nM and 3000 nM at EphrinB2-EphB2 [2] (setting [8]); 2140 nM at EphrinB2-EphB2 [2] (setting [9]); 1820 nM at EphrinB2-EphB2 [2] (setting [10]); 2240 nM and 2000 nM on EphrinB2-EphB2 [2] (setting [11]).
Consider `O=S1(=O)CCN(Cc2ccc(O)c3ncccc23)CC1` [Compound 15, 4-((8-hydroxyquinolin-1-ium-5-yl)methyl)thiomorpholin-4-ium 1,1-dioxide chloride], for which the “EphB2 Inhibition Percent, Inhibition of Association ONLY” value on EphrinB2-EphB2 [1] stood at 33.8%. Further, the “EphB2 Inhibition Percent, Inhibition of Association-Dissociation” value on EphrinB2-EphB2 [1] came out at 46.4%. The IC50 on EphrinB2-EphB2 [2] (setting [6]) was over 1600 nM; at EphrinB2-EphB2 [2] (setting [7]), over 1600 nM; at EphrinB2-EphB2 [2] (setting [8]), over 1600 nM; at EphrinB2-EphB2 [2] (setting [9]) it was 620 nM; at EphrinB2-EphB2 [2] (setting [10]), over 1600 nM; on EphrinB2-EphB2 [2] (setting [11]), 1150 nM.
`Oc1ccc(CN2CCN(c3ccc(F)cc3F)CC2)c2cccnc12` [Compound 62, 5-((4-(2,4-difluorophenyl)piperazin-1-yl)methyl)quinolin-8-ol]: at EphrinB2-EphB2 [1], the “EphB2 Inhibition Percent, Inhibition of Association ONLY” value is listed as 0*%. At EphrinB2-EphB2 [1], the “EphB2 Inhibition Percent, Inhibition of Association-Dissociation” value is recorded as 0*%. In addition, the IC50 on EphrinB2-EphB2 [2] (setting [6]), at EphrinB2-EphB2 [2] (setting [7]), at EphrinB2-EphB2 [2] (setting [8]), on EphrinB2-EphB2 [2] (setting [9]), on EphrinB2-EphB2 [2] (setting [10]) and at EphrinB2-EphB2 [2] (setting [11]) was over 1600 nM in each case.

For orientation: IC50 means the concentration that gives 50% inhibition.
